BindingDB's records for doi:10.1016/j.bmcl.2018.01.029 (Presidio Pharmaceuticals, 2018)

Tests used:
[1] = Inhibition of HCV genotype 1a NS5A polymerase infected in human HuH7 replicon cells by luciferase reporter gene assay
[2] = Inhibition of HCV genotype 1b NS5B polymerase infected in human HuH7 replicon cells by luciferase reporter gene assay
[3] = Inhibition of HCV genotype 4a NS5B polymerase infected in human HuH7 replicon cells by luciferase reporter gene assay
[4] = Inhibition of HCV genotype 3a NS5B polymerase infected in human HuH7 replicon cells by luciferase reporter gene assay
[5] = Inhibition of HCV genotype 2a NS5B polymerase infected in human HuH7 replicon cells by luciferase reporter gene assay
[6] = Inhibition of NS5B polymerase in HCV genotype 1b infected human HuH7 replicon cells assessed as reduction in viral RNA level after 3 days by RT-PCR assay

Row | Structure (SMILES) | EC50 [1] | EC50 [2] | EC50 [3] | EC50 [4] | EC50 [5] | EC50 [6]
1 | CNC(=O)c1c(-c2ccc(F)cc2)oc2cc(N(CCO)S(C)(=O)=O)c(C3CC3)cc12 [HCV 796] | 24 nM | 12 nM | 21 nM | 19 nM | 72 nM | 9 nM
2 | CNC(=O)c1c(-c2ccc(F)cc2)oc2cc3c(cc12)[C@H](C)O[C@H](CO)CN3S(C)(=O)=O | 9 nM | 3 nM | 9 nM | 6 nM | 12 nM | 
